According to patent US20190231785A1, “PHOSPHODIESTERASE INHIBITOR TREATMENT” (Cyrano Therapeutics, Inc., priority 2012, published 2019):
Marks after values point to notes of the source that are not given here.

Tested on: patients with hyposmia
Experiment: Olfactometry (DT, RT, ME, H; forced-choice, three-stimuli, stepwise-staircase, four odors), open trial of oral theophylline
Assay type: in vivo, human
From the text: Patients initially reported their sensory dysfunction as either loss of taste (e.g., flavor) and/or smell function. This subjective response was documented by objective psychophysical measurements of olfactory function administered to each patient by use of a forced-choice, three-stimuli, stepwise-staircase technique in a fixed, controlled design (1, 53). Efficacy of this technique and results of testing were previously documented in a double-blind clinical trial (53). Four odors were used; they were pyridine (dead-fish odor), nitrobenzene (bitter-almond odor), thiophene (petroleum-like odor) and amyl acetate (banana-oil odor). Detection thresholds (DT), recognition thresholds (RT) and magnitude estimation (ME) values for each odor were determined as previously described (1, 53). Thresholds were converted into bottle units (BU) as previously described (53) and results reported as M±SEM of correct responses for each odor in each treatment group; ME was reported in % and results calculated to obtain M±SEM for each treatment group for all correct responses using data for the four highest odor concentrations presented (from 10^−2M—an absolute odor concentration).
In addition, each patient graded the hedonic (H) value of each odor presented for these same odor concentrations (from 10^−2M—an absolute odor concentration using a −100-0-+100 scale). […] Results were obtained by calculating the arithmetical sum of each correct recognition response for each odor with respect to its pleasantness, unpleasantness or neutrality. Arithmetic M±SEM were obtained for each treatment group for each odor presented.
After determination of hyposmia, patients were treated in an open label, fixed design, controlled open trial. Patients were given an oral extended release theophylline in divided daily doses taken in the middle of breakfast and lunch. All patients were initially given 200 mg of theophylline; changes in this dose were made based upon subjective responses to therapy. If at a subsequent return visit, patients reported ≥5% subjective improvement in overall smell function, they continued on this same dose of theophylline and were reevaluated after four to six months of continued treatment. Results from any subsequent return from these improved patients were not included in any subsequent data report. All subsequent comparisons between treated and untreated patients were made only between those patients continuing in the study compared to their own measurements obtained in the untreated state. If patients reported <5% subjective improvement, their theophylline dose was increased by 200 mg daily and they were scheduled for retesting at the study site after two to four months at this new dosage. For patients that reported <5% improvement, this sequence continued until patients reached 800 mg of theophylline, at which time the study was considered completed.
Patients returned for reevaluation after two to four months of treatment. Measurements of blood serum theophylline were measured by a fluorescence polarization assay (Abbott, Chicago, Ill.). At this time, subjective changes in smell function were measured independently (compared to patient's memory of previous normal smell function monitored by use of the patients' daily measurements) using the scale from −100-0-+100 previously described (vs). After independently recording their subjective responses, smell function was measured for all four odors with DT, RT, ME and H determined without recourse to prior measurements.
Since data for all measurements from each patient group (local or distant) on each dose level were combined mean and SEM for each measurement (DT, RT, ME, H) of smell function for each treatment group were calculated on this basis. Differences in measurements between before treatment and each treatment level were calculated and significance of differences estimated using Student t tests (values p<0.05 considered significant). […]

[1] = Type I hyposmia, oral 200 mg, after treatment (57 patients), mean ± SEM
[2] = Type I hyposmia, oral 400 mg, after treatment (33 patients), mean ± SEM
[3] = Type I hyposmia, oral 600 mg, after treatment (51 patients), mean ± SEM
[4] = Type I hyposmia, oral 800 mg, after treatment (12 patients), mean ± SEM
[5] = Type II hyposmia, oral 200 mg, after treatment (138 patients)
[6] = Type II hyposmia, oral 400 mg, after treatment (85 patients)
[7] = Type II hyposmia, oral 600 mg, after treatment (105 patients)

Cn1c(=O)c2[nH]cnc2n(C)c1=O [theophylline]
detection threshold (DT), pyridine [1]: 9.5 ± 0.2 BU
hedonic value (H), amyl acetate [1]: 4 ± 2^a %
hedonic value (H), nitrobenzene [1]: 4 ± 2^a %
hedonic value (H), pyridine [1]: −8 ± 2^a %
hedonic value (H), thiophene [1]: −3 ± 2^a %
magnitude estimation (ME), amyl acetate [1]: 6 ± 2^a %
magnitude estimation (ME), nitrobenzene [1]: 5 ± 2^a %
magnitude estimation (ME), pyridine [1]: 11 ± 2^a %
magnitude estimation (ME), thiophene [1]: 6 ± 2^a %
recognition threshold (RT), pyridine [1]: 11.0 ± 0.2^a BU
detection threshold (DT), nitrobenzene [2]: 9.8 ± 0.5^a BU
detection threshold (DT), pyridine [2]: 8.8 ± 0.5 BU
detection threshold (DT), thiophene [2]: 9.8 ± 0.5^a BU
hedonic value (H), amyl acetate [2]: 5 ± 3^a %
hedonic value (H), nitrobenzene [2]: 3 ± 3^a %
hedonic value (H), pyridine [2]: −7 ± 3^a %
hedonic value (H), thiophene [2]: −5 ± 2^a %
magnitude estimation (ME), amyl acetate [2]: 7 ± 3^a %
magnitude estimation (ME), nitrobenzene [2]: 8 ± 3^a %
magnitude estimation (ME), pyridine [2]: 12 ± 3^a %
magnitude estimation (ME), thiophene [2]: 7 ± 2^a %
recognition threshold (RT), pyridine [2]: 10.6 ± 0.4 BU
detection threshold (DT), nitrobenzene [3]: 9.9 ± 0.4^c BU
detection threshold (DT), pyridine [3]: 8.9 ± 0.3^b BU
detection threshold (DT), thiophene [3]: 9.4 ± 0.4^a BU
hedonic value (H), amyl acetate [3]: −0.4 ± 1%
hedonic value (H), nitrobenzene [3]: 2 ± 2%
hedonic value (H), pyridine [3]: −8 ± 2^a %
hedonic value (H), thiophene [3]: −3 ± 2^a %
magnitude estimation (ME), amyl acetate [3]: 5 ± 2^a %
magnitude estimation (ME), nitrobenzene [3]: 6 ± 2^a %
magnitude estimation (ME), pyridine [3]: 11 ± 3^a %
magnitude estimation (ME), thiophene [3]: 7 ± 2^a %
detection threshold (DT), thiophene [4]: 10.0 ± 0.7 BU
hedonic value (H), amyl acetate [4]: −1 ± 4%
hedonic value (H), nitrobenzene [4]: 2 ± 2^a %
hedonic value (H), pyridine [4]: −11 ± 5^a %
hedonic value (H), thiophene [4]: −4 ± 2^a %
magnitude estimation (ME), amyl acetate [4]: 5 ± 3^a %
magnitude estimation (ME), nitrobenzene [4]: 4 ± 3^a %
magnitude estimation (ME), pyridine [4]: 10 ± 4^a %
magnitude estimation (ME), thiophene [4]: 4 ± 2^a %
detection threshold (DT), amyl acetate [5]: 7.0 ± 0.3 BU
detection threshold (DT), nitrobenzene [5]: 6.9 ± 0.3^a BU
detection threshold (DT), pyridine [5]: 6.9 ± 0.2 BU
detection threshold (DT), thiophene [5]: 6.5 ± 0.3 BU
hedonic value (H), amyl acetate [5]: 3 ± 2%
hedonic value (H), nitrobenzene [5]: 7 ± 2%
hedonic value (H), pyridine [5]: −28 ± 2%
hedonic value (H), thiophene [5]: −19 ± 2%
magnitude estimation (ME), amyl acetate [5]: 19 ± 2%
magnitude estimation (ME), nitrobenzene [5]: 22 ± 2%
magnitude estimation (ME), pyridine [5]: 35 ± 2%
magnitude estimation (ME), thiophene [5]: 27 ± 2%
recognition threshold (RT), amyl acetate [5]: 9.3 ± 0.2 BU
recognition threshold (RT), nitrobenzene [5]: 8.8 ± 0.3 BU
recognition threshold (RT), pyridine [5]: 8.2 ± 0.2^a BU
recognition threshold (RT), thiophene [5]: 8.2 ± 0.3^a BU
detection threshold (DT), amyl acetate [6]: 6.1 ± 0.4^a BU
detection threshold (DT), nitrobenzene [6]: 6.3 ± 0.4^a BU
detection threshold (DT), pyridine [6]: 6.3 ± 0.3^a BU
detection threshold (DT), thiophene [6]: 5.7 ± 0.4 BU
hedonic value (H), amyl acetate [6]: 0.3 ± 2.8%
hedonic value (H), nitrobenzene [6]: 11 ± 3%
hedonic value (H), pyridine [6]: −34 ± 3%
hedonic value (H), thiophene [6]: −23 ± 3%
magnitude estimation (ME), amyl acetate [6]: 21 ± 3%
magnitude estimation (ME), nitrobenzene [6]: 27 ± 3^a %
magnitude estimation (ME), pyridine [6]: 41 ± 3^a %
magnitude estimation (ME), thiophene [6]: 31 ± 3%
recognition threshold (RT), amyl acetate [6]: 8.8 ± 0.4^a BU
recognition threshold (RT), nitrobenzene [6]: 8.2 ± 0.4^a BU
recognition threshold (RT), pyridine [6]: 7.7 ± 0.3^a BU
recognition threshold (RT), thiophene [6]: 7.6 ± 0.4^a BU
detection threshold (DT), amyl acetate [7]: 6.8 ± 0.3^a BU
detection threshold (DT), nitrobenzene [7]: 6.8 ± 0.3^a BU
detection threshold (DT), pyridine [7]: 6.7 ± 0.3^a BU
detection threshold (DT), thiophene [7]: 6.1 ± 0.3^a BU
hedonic value (H), amyl acetate [7]: 7 ± 2%
hedonic value (H), nitrobenzene [7]: 11 ± 2%
hedonic value (H), pyridine [7]: −25 ± 3%
hedonic value (H), thiophene [7]: −20 ± 2%
magnitude estimation (ME), amyl acetate [7]: 19 ± 2%
magnitude estimation (ME), nitrobenzene [7]: 24 ± 2%
magnitude estimation (ME), pyridine [7]: 33 ± 2%
magnitude estimation (ME), thiophene [7]: 27 ± 2%
recognition threshold (RT), amyl acetate [7]: 8.9 ± 0.3^a BU
recognition threshold (RT), nitrobenzene [7]: 8.4 ± 0.3 BU
recognition threshold (RT), pyridine [7]: 8.9 ± 0.3 BU
